Test results reported in ChEMBL document CHEMBL3507680, “University of Dundee, Gates Library screen for HepG2 cell viability”.

Experiment: Human HepG2 cell viability assay in 384 well format
Format: toxicity, cell-based
Set-up: dose 125 nL, time 70.5 hour; cytotoxicity at 70.5 h: concentration not given beside the values
Conditions: HepG2 cells, read-out: Inhibition

Row | SMILES | cytotoxicity at 70.5 h [%]
1 | O=C(Cc1ccc(-c2ccccc2)cc1)N1CCOCC(O)C1 (stereo not given) | -9.74
2 | COc1cc(C(=O)NCc2cc(N3CCOCC3)ncn2)ccn1 | 20.4
3 | COCCC1(CO)CCCN(C(=O)c2ccc(C(C)C)[nH]c2=O)C1 (stereo not given) | 11.1
4 | COc1ccc(-c2cn[nH]c2)cc1CNC1CCCC1 | -19.5
5 | Cn1ncc(N2CCC(CNC3CC(c4ccccc4)C3)CC2)cc1=O (stereo not given) | -5.35
6 | Cc1ccccc1N1CCN(C(=O)c2cnc(N(C)C)nc2C)C(C)C1 (stereo not given) | -7.48
7 | Nc1ncccc1CN1CCCn2nc(CCC(=O)NC3CC3)cc2C1 | -2.41
8 | CN(CCc1cn[nH]c1)C(=O)C1CC(=O)N(Cc2ccccn2)C1 (stereo not given) | 6.7
9 | CCc1cn[nH]c1C1CCN(C(=O)c2cc(C(C)=O)c(C)[nH]c2=O)CC1 | -9.17
10 | Cc1ccc(=O)n(CC(=O)N(C)Cc2csc(-c3cccs3)n2)n1 | -7.16
11 | Cc1ccc2nc(C)c(C)c(C(=O)N3CCS(=O)(=O)CC3)c2c1 | -12.9
12 | CC(C)n1cnnc1CN(C)Cc1ccc(CO)o1 | -22.8
13 | NC(=O)c1ccc(-n2ccnc2-c2cccc(O)c2)cc1N1CCCC1 | -6.04
14 | N[C@H]1CN(C(=O)c2ccc(Cl)cc2F)C[C@@H]1C1CC1 | -4.7
15 | CCc1nc(C)c(C(=O)N2C[C@@H](C(=O)O)[C@H](C3CC3)C2)s1 | -4.51
16 | CCOC(=O)c1n[nH]cc1CN1CCCC(N(C)Cc2ccccc2)C1 (stereo not given) | 2.53
17 | CCN(Cc1ccncc1)C1CCCN(Cc2ccc(F)cc2Cl)C1 (stereo not given) | 1.69
18 | c1c[nH]c(-c2cn(CCSc3cnn[nH]3)nn2)n1 | -11.9
19 | CCc1nc(N2CCCC(CCOC)(C(=O)O)C2)ncc1C (stereo not given) | -4.01
20 | Cc1cc(C)n(C2CCN(C(=O)c3cn4ccsc4n3)C2)n1 (stereo not given) | -7.56
21 | Cc1cc(C2CCC2)nc(NCCC23CCCN2CCC3)n1 | -8.73
22 | O=C1CCC2(CCCN(C(=O)c3ccoc3)C2)CN1Cc1ccncc1 (stereo not given) | -16.8

Row | SMILES | cytotoxicity at 70.5 h [%]
23 | O=C(c1ccnc(N2CCOC(C(F)(F)F)C2)c1)N1CCOCC1 (stereo not given) | -19.7
24 | CC(C)c1nnc2sc(CC3CN(Cc4ccccc4)CCO3)nn12 (stereo not given) | 6.69
25 | CC(C)[C@H]1COC(=O)N1CC(=O)N(C)CCCn1cccn1 | -4.67
26 | Cc1cc(-c2nn(C)c(Cl)c2CN2CCCCC(N)C2)no1 (stereo not given) | -1.48
27 | CN1CCN(C(=O)NCCc2ccc(F)cc2)[C@H]2CS(=O)(=O)C[C@H]21 | -2.69
28 | CN(Cc1csc(-c2ccccc2)n1)C(=O)CCn1ccccc1=O | -0.921
29 | CSCc1noc(CN2CC3(CCCC3)CC2=O)n1 | -7.21
30 | CCc1nc(N2CCCC(O)(CO)CC2)ncc1C (stereo not given) | -0.208
31 | CN1CCCN(C(=O)c2cnc(Cc3c(Cl)cccc3Cl)nc2O)CC1 | -3.04
32 | CC1(C)CCN(Cc2ccccc2-c2nc(C(C)(C)C)cc(=O)[nH]2)C1 | -4.72
33 | Cc1ccc(C(=O)N2CCC(=O)N(CC3CC3)C(C(C)C)C2)c(=O)[nH]1 (stereo not given) | 4.74
34 | CCN1CC2(CCN(C(=O)C(C)Oc3ccc(F)cc3F)CC2)OC1=O (stereo not given) | -1.13
35 | Cc1cnc(NC(=O)c2cccc(CN(C)Cc3snnc3C)c2)s1 | -4.01
36 | CC(c1ccon1)N(C)C(=O)C1CCN(C2CCCCC2)CC1 (stereo not given) | -1.12
37 | Cc1ccccc1-n1cc(CN(C)C(=O)CC2C(=O)NCCN2C)cn1 (stereo not given) | -2.44
38 | CN(CCCN1CCCCCC1)C(=O)c1ccccc1NCC(=O)O | -12.7
39 | O=C(CN1CCOC1=O)N1CC[C@@H](c2ccc3ccccc3c2)[C@H](O)C1 | -9.33
40 | Cc1ccc(CN(Cc2ccccn2)C(=O)CCC2CCCN(C)C2)s1 (stereo not given) | 32.1
41 | CC(C)(C)c1cc(CN2CCOCC(O)C2)n[nH]1 (stereo not given) | 2.49
42 | c1cc(CN2CCC(c3nnc4n3CCCCC4)CC2)c2c(c1)OCO2 | -5.9
43 | c1cncc(CN2CCCC(Nc3ncnc4c3CCNCC4)C2)c1 (stereo not given) | -11.7
44 | Cc1cc(N2C[C@H](C3CC3)[C@@H](N)C2)nc(N2CCCCC2)n1 | 3.53

Row | SMILES | cytotoxicity at 70.5 h [%]
45 | COc1ccc(CN2CCC3(CC2)C(C(=O)O)CC(=O)N3C)cc1Cl (stereo not given) | -3.23
46 | C[C@@H]1CN(C(=O)Cn2ccc3ncccc3c2=O)C[C@H](C)O1 | -5.8
47 | CCC[C@H]1CN(S(=O)(=O)c2cc(C)ccc2F)C[C@@H]1N | -0.888
48 | Cc1nccc(N[C@H]2CN(CCS(C)(=O)=O)C[C@@H]2C2CC2)n1 | 18.1
49 | CN1CC(C(=O)N2CCN(c3cccc(Cl)c3)C(=O)C2)NC1=O (stereo not given) | -7.63
50 | COCCn1cnnc1Cn1ccnc1-c1ccsc1 | 1.35
51 | COc1ccccc1-n1nc(C(C)C)nc1Cc1nnc(N)s1 | -12.4
52 | COc1cc(-c2cccc3c2OC(CN)C3)ccc1O (stereo not given) | 14.1
53 | CSCCCNc1nccc(-c2cc(C(=O)O)ccn2)n1 | -7.43
54 | COC(=O)N1C[C@H]2CC[C@@H]1CN(Cc1ccncc1)C2 | -14.2
55 | O=C(O)C1(Oc2cccc(F)c2)CCN(C2CCOCC2)CC1 | -6.65
56 | COc1cc(CN2CC(=O)N(c3ccc(C)cc3)CC2C)cc(OC)c1 (stereo not given) | -12
57 | O=C(CCc1ccccc1)C1CCCN(Cc2cncn2C2CC2)C1 (stereo not given) | 2.12
58 | CCCOCCN1CCc2[nH]c(-c3ccccc3)nc2C1 | 11.7
59 | CC(C)(O)CCc1cccc(C(=O)NCCC2=CSC3=NCCCN23)c1 | -0.369
60 | Cc1cc(CN2CC[C@@H]3[C@@H](CCC(=O)N3CCc3c[nH]cn3)C2)oc1C | 1.03
61 | Cc1ccc(OC2(C(=O)O)CCN(C(=O)c3ccoc3C)CC2)cn1 | -0.44
62 | Cc1cc(N2CCC(CO)(CC3CCCCO3)CC2)nc2ccccc12 (stereo not given) | -9.32
63 | Cc1nc2c(c(NCc3ccc(-c4ccccn4)s3)n1)CCNCC2 | -8.23
64 | CN(C)C(=O)N1C[C@H]2CC[C@@H]1CN(C1Cc3ccccc3C1)C2 | -9.42
65 | Cc1cc2c(N3CCC(N(C)CCc4cnn(C)c4)CC3)ncnc2s1 | 2.46
66 | CN(C)c1nc2c(c(N(C)Cc3n[nH]c4c3CCCCC4)n1)CCNC2 | -9.48

Row | SMILES | cytotoxicity at 70.5 h [%]
67 | CN1CCCN(C(=O)c2nc3sccn3c2-c2ncc[nH]2)CC1 | -13
68 | CCC(CO)N(Cc1ccccn1)C(=O)c1ccc(CSC)o1 (stereo not given) | -0.517
69 | Cc1noc(C)c1-c1n[nH]c2c1CN(S(=O)(=O)c1ccsc1)CC2 | 15.3
70 | O=C(Cc1ccc2c(c1)OCO2)N1CCN(c2ccccc2Cl)C(=O)C1 | -4.7
71 | CS(=O)(=O)N1C[C@H]2CC[C@@H]1CN(Cc1ccncc1)C2 | -10.9
72 | Cc1nc2c(c(NCC(=O)NC(C)C)n1)Cc1ccccc1OC2 | -2.23
73 | CC(C)Cc1noc(CN(C)c2cc(N(C)C)ncn2)n1 | -7.9
74 | COCCN1CCC(CN(CC2CCCO2)C(=O)Cc2cccs2)CC1 (stereo not given) | -4.23
75 | CCn1c(C2CCCN(Cc3cc(C)cc(C)c3)C2)nn(C)c1=O (stereo not given) | 3.73
76 | CSc1ncc(CN2C[C@H]3CC[C@@H]2CN(C2CCOCC2)C3)cn1 | -3.4
77 | CCC[C@H]1CN(CCOC)C[C@@H]1NC(=O)Cn1cc(C)cn1 | 4.5
78 | CC(C)CCN1CC2(CCN(C(=O)C3(C)CCCCO3)CC2)OC1=O (stereo not given) | 49.2
79 | CC(C)(C)CN1CCCC(O)(CN2CCc3[nH]ncc3C2)C1=O (stereo not given) | -1.48
80 | Cc1cc(C(=O)NC(C)C(=O)Nc2cc(F)ccc2C)nc(C)n1 (stereo not given) | 5.43
81 | CCc1cnc(NCCCOC2CCCC2)nc1 | -16.5
82 | COCCN(Cc1sccc1C)C(=O)COc1cccnc1 | -4.34
83 | Cc1ccc([C@@H]2CN(C(=O)c3cc[nH]c3)C[C@H]2NC(=O)C2CC2)cc1 | -10.7
84 | CN(CCc1noc(C2CC2)n1)C(=O)CCc1cc2n(n1)CCCNC2 | -9.33
85 | CCC(C)N(Cc1sccc1C)C(=O)c1cnc[nH]1 (stereo not given) | -6.28
86 | O=C(O)c1coc(COc2cccc3cnccc23)n1 | -7.63
87 | N#CC1(C(=O)N2C[C@H]3CC[C@@H]2CN(Cc2cscn2)C3)CCOCC1 | 15.7
88 | O=C(c1ccccc1)N1C[C@@H]2CC[C@H](C1)N(Cc1cc(F)ccc1Cl)C2 | 27

Row | SMILES | cytotoxicity at 70.5 h [%]
89 | CC(=O)c1ccc(-c2cnn(CC(=O)Nc3ccnn3C)c2)nc1 | -9.08
90 | O=C(CN1CCCC1)N1CCCC(CNS(=O)(=O)Cc2ccccc2)C1 (stereo not given) | 22.2
91 | Cc1nc(C(C)Nc2ncnc3c2CCNCC3)c(C)s1 (stereo not given) | -4.99
92 | CCOc1ccc(CN2CC[C@H]3CC[C@@H](C2)N3)cc1CO | -14
93 | CCOC(=O)C1(Cc2cccc(OC)c2)CCCN(Cc2ncc[nH]2)C1 (stereo not given) | 22
94 | CCN1CC2(CCC1=O)CCN(Cc1cccc(OC(F)F)c1)CC2 | 20.5
95 | CC(O)CN1CC2(CCC1=O)CCN(C(=O)c1cnn(C)c1)CC2 (stereo not given) | -1.73
96 | O=C(c1cccnc1SC/C=C/c1ccccc1)N1CC[C@H](O)C1 | 2.11
97 | CC(C)c1nnsc1CN1CCc2[nH]nc(-c3ccc(Cl)cc3)c2C1 | 9.53
98 | COCCn1ccnc1C1CCN(C(=O)c2cccc(COC)n2)CC1 | -4.2
99 | CC(C)c1cc(C2CCCN2C(=O)CN2C(=O)CCNC2=O)no1 (stereo not given) | -5.21
100 | O=C(CCN1CCCCO1)N1CCC(CO)(Cc2ccccc2)CC1 | -6.23
101 | CC1(C)CN(Cc2cc(C3CCCCC3)no2)CC[C@]1(C)O | -12.5
102 | Cc1cc(C)c2nc(CNC3CCCNC3=O)cc(O)c2c1 (stereo not given) | -6.5
103 | COC(=O)CCCNC(=O)c1cc(COc2cncc(Cl)c2)on1 | 0.545
104 | O=C(C1CC1)N1CCc2c(ncnc2NCCc2nc3c(s2)CCC3)C1 | 13.5
105 | Fc1ccccc1C1(CNC2CCOC3(CCOCC3)C2)CCCC1 (stereo not given) | -9.34
106 | COc1cccc(OC)c1-c1c[nH]c(C)n1 | -19.9
107 | CC(C)C(C)N(Cc1cnc2ccccc2n1)Cc1ccco1 (stereo not given) | -8.62
108 | CC(=O)Nc1ccc(CNC(=O)CNCc2sc(C)nc2C)cc1 | 6.71
109 | CCC(NC(=O)CC1CCN(C(C)C)CC1)c1cn2cccnc2n1 (stereo not given) | 1.45
110 | Cc1ccccc1N1CCN(c2nc(N(C)C)nc3c2CCNC3)CC1 | 33.6
